From patent US20240043415A1, “KCNT1 INHIBITORS AND METHODS OF USE” (Praxis Precision Medicines, Inc., priority 2020, published 2024)

Biological target: T1, KCNT1 (KNa1.1, Slack) (Homo sapiens, UniProt Q5JUK3)
T1 construct: expressed in transfected cells; host or cells: HEK-TREX (tetracycline-inducible)
T1 sequence (Q5JUK3 1-1230): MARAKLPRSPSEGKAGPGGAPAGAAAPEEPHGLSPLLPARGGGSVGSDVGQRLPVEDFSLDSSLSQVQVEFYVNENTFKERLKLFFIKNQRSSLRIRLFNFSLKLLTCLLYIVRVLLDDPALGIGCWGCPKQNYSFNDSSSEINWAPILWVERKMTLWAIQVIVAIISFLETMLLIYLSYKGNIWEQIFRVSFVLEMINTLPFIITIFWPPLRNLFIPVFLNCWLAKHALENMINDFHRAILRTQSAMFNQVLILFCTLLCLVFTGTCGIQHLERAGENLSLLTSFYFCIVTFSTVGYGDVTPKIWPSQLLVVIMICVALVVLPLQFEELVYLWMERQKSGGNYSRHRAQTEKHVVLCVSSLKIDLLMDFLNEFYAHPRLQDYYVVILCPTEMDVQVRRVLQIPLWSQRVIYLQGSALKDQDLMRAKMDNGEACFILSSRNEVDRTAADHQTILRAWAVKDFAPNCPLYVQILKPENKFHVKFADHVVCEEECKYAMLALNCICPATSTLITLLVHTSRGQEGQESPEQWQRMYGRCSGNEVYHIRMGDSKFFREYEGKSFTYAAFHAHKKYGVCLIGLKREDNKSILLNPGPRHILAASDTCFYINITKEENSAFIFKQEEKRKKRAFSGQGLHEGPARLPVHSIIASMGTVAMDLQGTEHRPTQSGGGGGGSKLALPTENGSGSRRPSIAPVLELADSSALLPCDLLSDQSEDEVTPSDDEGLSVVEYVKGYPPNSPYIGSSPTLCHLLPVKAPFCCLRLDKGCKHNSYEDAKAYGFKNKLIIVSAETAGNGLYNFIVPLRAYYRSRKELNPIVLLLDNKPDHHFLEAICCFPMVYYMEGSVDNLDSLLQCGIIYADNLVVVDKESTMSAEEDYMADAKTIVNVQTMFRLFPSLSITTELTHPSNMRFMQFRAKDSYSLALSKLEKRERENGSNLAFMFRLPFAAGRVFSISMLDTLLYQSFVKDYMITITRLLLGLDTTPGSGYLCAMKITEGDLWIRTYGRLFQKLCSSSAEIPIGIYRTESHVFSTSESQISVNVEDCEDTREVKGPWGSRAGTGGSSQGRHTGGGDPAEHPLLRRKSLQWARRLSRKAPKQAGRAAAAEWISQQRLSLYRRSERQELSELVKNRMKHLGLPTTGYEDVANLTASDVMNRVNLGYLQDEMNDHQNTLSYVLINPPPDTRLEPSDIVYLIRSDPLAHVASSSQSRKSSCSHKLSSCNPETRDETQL
Test: KCNT1 patch clamp assay (SyncroPatch 384PE, HEK-TREX cell line)
Format: cell-based
Settings: tetracycline inducible HEK-TREX cell line, perforated patch, step to 0 mV, room temperature; read-out: KCNT1-WT IC50
Procedure: Currents were recorded using the SyncroPatch 384PE automated, patch clamp system. Pulse generation and data collection were performed with PatchController384 V1.3.0 and DataController384 V1.2.1 (Nanion Technologies). The access resistance and apparent membrane capacitance were estimated using built-in protocols. Current were recorded in perforated patch mode (10 μM escin) from a population of cells. The cells were lifted, triturated, and resuspended at 800,000 cells/ml. The cells were allowed to recover in the cell hotel prior to experimentation. Currents were recorded at room temperature. […] The extracellular solution was used as the wash, reference and compound delivery solution. […] Escin is made at a 5 mM stock in water, aliquoted, and stored at −20° C. The compound plate was created at 2× concentrated in the extracellular solution. The compound was diluted to 1:2 when added to the recording well. The amount of DMSO in the extracellular solution was held constant at the level used for the highest tested concentration. A holding potential of −80 mV with a 100 ms step to 0 mV was used. […] The average mean current from 3 sweeps was calculated and the % inhibition of each compound was calculated. The % Inhibition as a function of the compound concentration was fit with a Hill equation to derive IC50, slope, min and max parameters.

IC50: ≤ 1 µM
Compound: C[C@H](NC(=O)c1cc(C(F)(F)F)nn1C)c1noc(-c2ccnc(C3CC3)c2)n1 [Compound 2a, (S)-N-(1-(5-(2-cyclopropylpyridin-4-yl)-1,2,4-oxadiazol-3-yl)ethyl)-1-methyl-3-(trifluoromethyl)-1H-pyrazole-5-carboxamide]
